Measurements from ChEMBL document CHEMBL1147380, “Studies on the acetogenins of Formosan annonaceous plants. II. Cytotoxic acetogenins from Annona reticulata” (1993).
Values after ≈ are worked out from the molar mass of the structure shown.

Legend:
Type in all cases: functional
A549 = assay: Cytotoxicity against human A549 cells; conditions: for EC50: Homo sapiens, A549, read-out: ED50 (the source's name)
P388 = assay: Cytotoxicity against mouse P388 cells; conditions: for EC50: Mus musculus, P388, read-out: ED50 (the source's name)
HT-29 = assay: Cytotoxicity against human HT-29 cells; conditions: for EC50: Homo sapiens, HT-29, read-out: ED50 (the source's name)
KB = assay: Cytotoxicity against human KB cells; conditions: for EC50: Homo sapiens, KB, read-out: ED50 (the source's name)
MCF7 = assay: Cytotoxicity against human MCF7 cells; conditions: for EC50: Homo sapiens, MCF7, read-out: ED50 (the source's name)

SMILES	EC50 (A549)	EC50 (P388)	EC50 (HT-29)	EC50 (KB)	further results
CCCCCCCCCCCC[C@H](O)[C@@H]1CC[C@@H]([C@@H](O)CCCCC(=O)CCCCCC2CC(CC(C)=O)C(=O)O2)O1 (some centres not stated) [ISOANNONACINONE]	0.07 µg/mL (≈ 0.118 µM)	0.5 µg/mL (≈ 0.841 µM)	0.009 µg/mL (≈ 0.0151 µM)	–	–
CCCCCCCCCCCC[C@H](O)[C@@H]1CC[C@@H]([C@@H](O)CCCCCC(O)CCCCC(O)CC2=CC(C)OC2=O)O1 (some centres not stated) [ANNORETICUIN]	0.4 µg/mL (≈ 0.67 µM)	1 µg/mL (≈ 1.68 µM)	2.28 µg/mL (≈ 3.82 µM)	3.37 µg/mL (≈ 5.65 µM)	–
CCCCCCCCCCCC[C@@H](O)[C@H]1CC[C@H]([C@H](O)CCCCC(=O)CCCCC[C@@H](O)CC2=C[C@H](C)OC2=O)O1 [ANNONACINONE]	0.1 µg/mL (≈ 0.168 µM)	–	1 µg/mL (≈ 1.68 µM)	0.01 µg/mL (≈ 0.0168 µM)	ED50 (P388): 1 ×10⁻⁶ ug/ml
CCCCCCCCCCCC[C@H](O)[C@@H]1CC[C@@H]([C@@H](O)CCCCCC(=O)CCCCC2CC(CC(C)=O)C(=O)O2)O1 (some centres not stated) [SQUAMONE]	1.34 µg/mL (≈ 2.25 µM)	5.6 µg/mL (≈ 9.41 µM)	–	1.5 µg/mL (≈ 2.52 µM)	EC50 (MCF7): 2.14 µg/mL (≈ 3.6 µM)
CCCCCCCCCCCC[C@H](O)[C@@H]1CC[C@@H]([C@@H](O)CCCCCCCCCCCCCCC2=CC(C)OC2=O)O1 (some centres not stated) [RETICULATACIN]	3.49 µg/mL (≈ 5.89 µM)	–	4.66 µg/mL (≈ 7.86 µM)	–	EC50 (MCF7): 2.91 µg/mL (≈ 4.91 µM)
CCCCCCCCCCCC[C@H](O)[C@@H]1CC[C@@H]([C@@H](O)CC(O)CCCCC(O)CCCC(O)CC2=CC(C)OC2=O)O1 (some centres not stated) [ANNOMONICIN]	–	0.24 µg/mL (≈ 0.392 µM)	–	2.29 µg/mL (≈ 3.74 µM)	–
CCCCCCCCCCCC[C@H](O)[C@@H]1CC[C@@H]([C@@H](O)CCCCC(O)CCCCCC2CC(CC(C)=O)C(=O)O2)O1 (some centres not stated) [ISOANNONACIN]	0.02 µg/mL (≈ 0.0335 µM)	3 µg/mL (≈ 5.03 µM)	0.002 µg/mL (≈ 0.00335 µM)	–	–
CCCCCCCCCCCC[C@H](O)[C@@H]1CC[C@@H]([C@@H](O)CCCCCC(=O)CCCCC(O)CC2=CC(C)OC2=O)O1 (some centres not stated)	0.01 µg/mL (≈ 0.0168 µM)	0.2 µg/mL (≈ 0.336 µM)	1.32 µg/mL (≈ 2.22 µM)	4.66 µg/mL (≈ 7.83 µM)	–
CCCCCCCCCC[C@@H](O)[C@@H]1CC[C@@H]([C@@H]2CC[C@@H]([C@H](O)CCCCCCCCCC(O)CC3=CC(C)OC3=O)O2)O1 (stereo in doubt; 7) [BULLATACIN]	0.001 µg/mL (≈ 0.00164 µM)	–	–	10 µg/mL (≈ 16.4 µM)	–
CCCCCCCCCCCC[C@@H](O)[C@H]1CC[C@H]([C@H](O)CCCCCCCCCCCCC2=C[C@H](C)OC2=O)O1 [REL-SOLAMIN]	–	0.04 µg/mL (≈ 0.0708 µM)	–	0.3 µg/mL (≈ 0.531 µM)	–
CCCCCCCCCCCC[C@@H](O)[C@H]1CC[C@H]([C@H](O)CCCC[C@H](O)CCCCC[C@@H](O)CC2=CC(C)OC2=O)O1 (some centres not stated) [ANNONACIN]	0.001 µg/mL (≈ 0.00168 µM)	–	3 µg/mL (≈ 5.03 µM)	–	ED50 (KB): 1 ×10⁻⁴ ug/ml; ED50 (P388): 1 ×10⁻⁵ ug/ml
CCCCCCCCCC[C@@H](O)[C@@H]1CC[C@@H]([C@@H]2CC[C@@H]([C@H](O)CCCCCCCCCC(O)CC3=CC(C)OC3=O)O2)O1 (stereo in doubt; 13) [BULLATACIN]	–	–	–	–	ED50 (A549): <1 ×10⁻⁵ ug/ml; ED50 (MCF7): <1 ×10⁻⁵ ug/ml; ED50 (HT-29): <1 ×10⁻³ ug/ml
CCCCCCCCCCCC[C@H](O)[C@@H]1CC[C@@H]([C@@H](O)CCCCCC(O)CCCCC2CC(CC(C)=O)C(=O)O2)O1 (some centres not stated) [ISOANNORETICUIN]	0.4 µg/mL (≈ 0.67 µM)	3.6 µg/mL (≈ 6.03 µM)	3.06 µg/mL (≈ 5.13 µM)	6.96 µg/mL (≈ 11.7 µM)	–
